Where two headings read alike, the source gives them in different places.
What was measured:
K562 = experiment: CellTiter-Glo cell proliferation assay, K562; type: cell-based; details: Homo sapiens, 72 hours, Table 1, read-out: Growth inhibition (IC50)
Experimental: (§1) CellTiter-Glo® Luminescent Cell Viability assay (with Promega CellTiter 96® Luminescent CellTiter-Glo® kit) was used to study the proliferation inhibition by test compounds. Compounds were resuspended in DMSO to make a 25 mM stock suspension. Cells of cancer cell lines or normal tissues were seeded in 96-well plates at 1,500 to 5,000 cells/well overnight. Compounds were 2- or 3-fold diluted serially to obtain 10 concentrations. Then, the drugs were added to the cell wells by Bravo (Agilent) and incubated for 72 hours. The cells were lysed by adding CellTiter-Glo® Reagent (per manufacturer's instructions) and subsequently, the luminescence was read using EnVision® (PerkinElmer).
(§2) The percent of growth was calculated as follows. DMSO-treated cells were employed as vehicle control (High control, HC) and culture medium alone was employed as background (Low control, EC). % growth=100×(Lum sample−Lum EC)/(Lum HC−Lum EC). The ICso was calculated by concentration-response curve fitting using Graphpad Prism.
(§3) Hematological cancer cell lines tested included OCI-AML3, MV-4-11, KG-1, Kasumi-1, K562, THP-1; solid cancer cell lines tested included U87MG, U251, T98G, LN229, A172, H460, H2009, A549; normal cell lines tested included HCN2 and 3T3-L1. […] However, they were not toxic to in vitro cultured normal cells.

THP-1 = experiment: CellTiter-Glo cell proliferation assay, THP-1; type: cell-based; details: Homo sapiens, 72 hours, Table 1, read-out: Growth inhibition (IC50)
Experimental: as §1, §2, §3

KG1 = experiment: CellTiter-Glo cell proliferation assay, KG1; type: cell-based; details: Homo sapiens, KG-1, 72 hours, Table 1, read-out: Growth inhibition (IC50)
Experimental: as §1, §2, §3

XPO1 = XPO1 (Homo sapiens, UniProt O14980); experiment: REV-GFP translocation assay in U2OS cells; type: cell-based; design: endogenous in cells; host or cells: U2OS cells stably expressing REV-GFP (clones from HD Biosciences)
Experimental: LTD in China, and cells were cultured with growth medium. […] The highest Leptomycin B (LMB) concentration was set to 50 nM and serially diluted as the positive control, while the highest concentrations of other compounds were set to 10 μM. The cells treated with various drugs or DMSO, were incubated at 37° C. and 5% CO2 for 1 h. Then, cells were fixed with 4% formaldehyde for 15 min at room temperature. The cells were washed and stained with 100 μL Hoechst 33342 working solution for 10 min at room temperature in dark, after which the cell fluorescence was imaged with the High-Content Imaging System, ImageXpress® (Molecular Devices) using the 20× objective. The filters were set for Hoechst (350/461 nm) and GFP/FITC (488/509 nm) (wavelength for excitation and emission maxima). The % effect of REV nuclear translocation was calculated with the following formula: % effect=([…]- signals from testing compounds; ILMB-signals of 50 nM LMB group; ICTRL-signals of vehicle control group.

H460 = experiment: CellTiter-Glo cell proliferation assay, H460; type: cell-based; details: Homo sapiens, NCI-H460, 72 hours, Table 1, read-out: Growth inhibition (IC50)
Experimental: as §1, §2, §3

MV411 = experiment: CellTiter-Glo cell proliferation assay, MV411; type: cell-based; details: Homo sapiens, MV4-11, 72 hours, Table 1, read-out: Growth inhibition (IC50)
Experimental: as §1, §2, §3

H2009 = experiment: CellTiter-Glo cell proliferation assay, H2009; type: cell-based; details: Homo sapiens, NCI-H2009, 72 hours, Table 1, read-out: Growth inhibition (IC50)
Experimental: as §1, §2, §3

U87MG = experiment: CellTiter-Glo cell proliferation assay, U87MG; type: cell-based, human; details: Homo sapiens, U-87 MG, 72 h, U87MG; 72 hours; Table 1; read-out: Growth inhibition (IC50)
Experimental: as §1, §2, §3

A549 = experiment: CellTiter-Glo cell proliferation assay, A549; type: cell-based; details: Homo sapiens, 72 hours, Table 1, read-out: Growth inhibition (IC50)
Experimental: as §1, §2, §3

OCI-AML3 = experiment: CellTiter-Glo cell proliferation assay, OCI-AML3; type: cell-based; details: Homo sapiens, OCI-AML-3, 72 hours, Table 1, read-out: Growth inhibition (IC50)
Experimental: as §1, §2, §3

[1] = Pharmacokinetic profile summary; type: in vivo, mice or rats
Experimental: Blood was collected from mice (n=3, or 5) to contribute to the total of 10 time points (pre-dose, 5 min, 15 min, 30 min, 1 hour, 2 hours, 4 hours, 8 hours, 12 hours and 24 hours). At the designated time points, animals were anaesthetized under isoflurane, and approximately 110 μL of blood per time point was collected via retro-orbital puncture into pre-cooled K2EDTA tubes. Blood samples were put on wet ice and centrifuged (2000 g, 5 min at 4° C.) to obtain plasma within 30 minutes of sample collection. All samples were stored frozen at approximately −80° C. until analysis. Prior to analysis, samples were mixed with internal standard in acetonitrile, vortexed, centrifuged, and supernatant was injected for analysis. Concentration of compounds in plasma was determined using LC-MS-MS instrumentation (API 4000, Triple Quadrupole LC/MS/MS Mass Spectrometer). AUC values were calculated using Phoenix Win Nonlin 6.3 software package, PO-Noncompartmental model 200 (extravascular input).
Following collection, brain tissue was rinsed with cold saline, dried on filter paper, weighed and snap-frozen by placing on dry ice. All samples were stored frozen at approximately −80° C. until analysis. At the time of analysis, brain tissue was homogenized (homogenizing solution PBS, pH 7.4), mixed with internal standard in acetonitrile, vortexed, centrifuged, and supernatant was injected for analysis. Concentration of compounds in plasma was determined using LC-MS-MS instrumentation (API 4000, Triple Quadrupole LC/MS/MS Mass Spectrometer). Plasma samples were treated with the identical method (except homogenization step) and the concentration of compound in each matrix was calculated based on generated standard curves.
The pharmacokinetic profile of test compounds in mice or rats was determined from several test compounds was determined using the methods described in Example 22.

Kasumi-1 = experiment: CellTiter-Glo cell proliferation assay, Kasumi-1; type: cell-based; details: Homo sapiens, 72 hours, Table 1, read-out: Growth inhibition (IC50)
Experimental: as §1, §2, §3

Sequence of XPO1 (O14980 whole entry): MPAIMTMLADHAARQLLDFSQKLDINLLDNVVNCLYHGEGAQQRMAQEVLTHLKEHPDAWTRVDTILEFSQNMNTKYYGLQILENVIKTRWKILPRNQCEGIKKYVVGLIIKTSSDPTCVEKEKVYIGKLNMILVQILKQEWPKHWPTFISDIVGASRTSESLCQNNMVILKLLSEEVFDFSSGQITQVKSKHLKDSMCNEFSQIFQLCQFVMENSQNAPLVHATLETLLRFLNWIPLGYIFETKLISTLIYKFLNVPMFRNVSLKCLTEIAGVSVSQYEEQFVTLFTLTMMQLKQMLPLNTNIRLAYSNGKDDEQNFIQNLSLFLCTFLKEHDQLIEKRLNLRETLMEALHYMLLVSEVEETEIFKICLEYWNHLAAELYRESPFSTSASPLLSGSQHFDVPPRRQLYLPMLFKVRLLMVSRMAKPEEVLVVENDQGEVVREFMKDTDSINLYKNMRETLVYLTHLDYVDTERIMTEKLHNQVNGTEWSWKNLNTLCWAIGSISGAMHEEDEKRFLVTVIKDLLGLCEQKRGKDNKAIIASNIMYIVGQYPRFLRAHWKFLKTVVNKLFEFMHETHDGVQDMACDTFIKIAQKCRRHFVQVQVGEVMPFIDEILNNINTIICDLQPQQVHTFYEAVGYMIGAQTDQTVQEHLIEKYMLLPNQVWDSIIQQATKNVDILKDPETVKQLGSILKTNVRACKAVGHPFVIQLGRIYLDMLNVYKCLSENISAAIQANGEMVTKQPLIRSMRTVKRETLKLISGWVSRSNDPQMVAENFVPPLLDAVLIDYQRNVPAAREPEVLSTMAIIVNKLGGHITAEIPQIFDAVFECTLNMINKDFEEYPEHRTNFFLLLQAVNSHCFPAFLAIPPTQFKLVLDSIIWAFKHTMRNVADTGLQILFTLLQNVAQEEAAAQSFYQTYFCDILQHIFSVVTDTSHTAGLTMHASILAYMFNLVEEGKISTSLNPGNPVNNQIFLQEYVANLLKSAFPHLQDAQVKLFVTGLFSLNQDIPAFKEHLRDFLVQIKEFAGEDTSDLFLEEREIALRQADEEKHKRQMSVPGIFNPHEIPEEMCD

IC50 (K562): 1750 nM
IC50 (THP-1): 838 nM
EC50 (XPO1; REV-EGFP U2OS cells, 1 h, Table 2, read-out: Rev-GFP/EC50): 0.0148 µM
IC50 (XPO1; Table 10, first (or only) value of the cell): 14.8 nM
EC50 (XPO1; Table 13, read-out: Rev-GFP assay/μM): 0.015 µM
IC50 (H460): 306 nM
IC50 (MV411): 110 nM
IC50 (H2009): 453 nM
IC50 (U87MG): 194 nM
IC50 (A549): 1860 nM
IC50 (OCI-AML3): 341 nM
Kp ([1]; brain/plasma, 5 mpk/AUC Ratio, read-out: B/P ratio): 0.29
bioavailability ([1]; plasma, oral, mice or rats): 27%
AUC ([1]; plasma, po, 10 mg/kg, 10 mpk): 1060 ng·h/mL
half-life ([1]; plasma, mice or rats): 2.9 h
Cmax ([1]; po, 5 mg/kg, 5 mpk, first number of Plasma/brain pair, read-out: Cmax/(ng/mL) Plasma): 276 ng/mL
Cmax ([1]; po, 5 mg/kg, 5 mpk, second number of Plasma/brain pair, read-out: Cmax/(ng/mL) brain): 68.5 ng/mL
Cmax ([1]; po, 10 mg/kg, plasma, 10 mpk, read-out: Cmax (ng/ml) plasma/10 mpk): 312 ng/mL
SMILES: NC(=O)/C(=C/n1cnc(-c2cc(C(F)(F)F)cc(S(F)(F)(F)(F)F)c2)n1)c1cncnc1 [Compound IV, (E)-3-(3-(3-(Pentafluorosulfaneyl)-5-(trifluoromethyl)phenyl)-1H-1,2,4-triazol-1-yl)-2-(pyrimidin-5-yl)acrylamide]
IC50 (KG1): 698 nM
IC50 (Kasumi-1): 124 nM

— patent publication US11767313B2, “Compounds as nuclear transport modulators and uses thereof” (XWPHARMA LTD., priority 2018, dated 2023)
